Experimental findings from patent US20220089629A1, “AMORPHOUS SIALYLATED OLIGOSACCHARIDES” (GLYCOM A/S, priority 2019, published 2022) are described below.

SMILES strings stand for the structures. Where a name gives a salt, the structure may show the parent alone.

Data set [1] in a line: pH measurement of aqueous solutions by pH-meter. It is filed as physicochemical. As to conditions: for pH of aqueous stock solution: before pH adjustment. The procedure: When a pH value is referred to, it is measured by a pH-meter conventionally.
3′-SL Na-salt was made by bacterial fermentation and isolated in accordance with e.g. WO 2017/152918. An aqueous stock solution was made the concentration of which was 5.3 g/100 g, pH: 4.8.
Series A: a part of the above aqueous stock solution was adjusted to pH of 3.6 by addition of 1 M HCl-solution. The so-obtained solution was freeze-dried to give a white amorphous powder. The pH of its 5 w/w % solution was 3.9.
6′-SL Na-salt was made by bacterial fermentation and isolated in accordance with e.g. US 2018/0002363. An aqueous stock solution was made the concentration of which was 9.1 g/100 g, pH: 5.4.
Series A: a part of the above aqueous stock solution was adjusted to pH of 3.1 by addition of 1 M HCl-solution. The so-obtained solution was freeze-dried to give a white amorphous powder. The pH of its 5 w/w % solution was 3.5.

A short description of data set [2]: Forced heat stability test of freeze-dried amorphous 3′-SL samples, analysed by HPAEC-PAD. It is filed as physicochemical. The procedure:
Seven by one gram from each series, separately, was put into 4 ml glass vials and closed with screw lid containing teflon inliner (21 samples altogether). Three samples from each series were put into a 60° C. oven, and another three samples from each series were put into a 80° C. oven. One samples from each series was removed from the ovens after a time indicated below and kept in a freezer until analysis. The t=0 samples (one sample from each series) were kept in freezer during the entire time of the test.
The samples were analysed together after the longest incubation had finished by HPAEC-PAD on Carbopac PA-200 (3×250 mm) column using isocratic 75 mM NaOH+37.5 mM NaOAc eluent.

For `CC(=O)N[C@H]1[C@H]([C@H](O)[C@H](O)CO)O[C@@](O[C@H]2[C@@H](O)[C@@H](CO)O[C@@H](O[C@H]3[C@H](O)[C@@H](O)C(O)O[C@@H]3CO)[C@@H]2O)(C(=O)O)C[C@@H]1O` (stereo partly drawn) [3′-SL Na-salt, 3′-sialyllactose], in data set [1] (concentration 5.3 g/100 g), the “pH of aqueous stock solution” value is given as 4.8.

Consider `CC(=O)N[C@H]1[C@H]([C@H](O)[C@H](O)CO)O[C@@](OC[C@H]2O[C@@H](O[C@H]3[C@H](O)[C@@H](O)[C@H](O)O[C@@H]3CO)[C@H](O)[C@@H](O)[C@H]2O)(C(=O)O)C[C@@H]1O` [6′-SL Na-salt, 6′-sialyllactose], for which the “pH of aqueous stock solution” value in data set [1] (concentration 9.1 g/100 g) was found to be 5.4.

As to `CC(=O)N[C@H]1[C@H]([C@H](O)[C@H](O)CO)O[C@@](O[C@H]2[C@@H](O)[C@@H](CO)O[C@@H](O[C@H]3[C@H](O)[C@@H](O)C(O)O[C@@H]3CO)[C@@H]2O)(C(=O)O)C[C@@H]1O` (stereo partly drawn) [Example 1 Series A, 3′-sialyllactose], the “content of 3′-O-sialyl-lactulose (ketose rearranged derivative of 3′-SL) in the sample” value (shortened to “content of 3′-O-sialyl-lactulose”) came to 1.66 area % in data set [2] (60° C., 2 weeks, solid in closed vial, listed as sample A); 2.12 area % in data set [2] (60° C., 4 weeks, solid in closed vial, listed as sample A); 1.96 area % in data set [2] (60° C., 6 weeks, solid in closed vial, listed as sample A); 1.91 area % in data set [2] (80° C., 1 weeks, solid in closed vial, listed as sample A); 1.97 area % in data set [2] (80° C., 2 weeks, solid in closed vial, listed as sample A); 2.24 area % in data set [2] (80° C., 4 weeks, solid in closed vial, listed as sample A). The “content of 3′-O-sialyl-lactulose” value in data set [2] (t = 0, kept in freezer, listed as sample A) turned out to be 1.75 area %.

`CC(=O)N[C@H]1[C@H]([C@H](O)[C@H](O)CO)O[C@@](O[C@H]2[C@@H](O)[C@@H](CO)O[C@@H](O[C@H]3[C@H](O)[C@@H](O)C(O)O[C@@H]3CO)[C@@H]2O)(C(=O)O)C[C@@H]1O` (stereo partly drawn) [Example 1 Series B, 3′-sialyllactose]: the “content of 3′-O-sialyl-lactulose” value amounted to 2.16 area % in data set [2] (60° C., 2 weeks, solid in closed vial, listed as sample B); 2.16 area % in data set [2] (60° C., 4 weeks, solid in closed vial, listed as sample B); 2.31 area % in data set [2] (60° C., 6 weeks, solid in closed vial, listed as sample B); 2.34 area % in data set [2] (80° C., 1 weeks, solid in closed vial, listed as sample B); 2.39 area % in data set [2] (80° C., 2 weeks, solid in closed vial, listed as sample B); 2.88 area % in data set [2] (80° C., 4 weeks, solid in closed vial, listed as sample B). The “content of 3′-O-sialyl-lactulose” value in data set [2] (t = 0, kept in freezer, listed as sample B) was determined as 1.77 area %.

Consider `CC(=O)N[C@H]1[C@H]([C@H](O)[C@H](O)CO)O[C@@](O[C@H]2[C@@H](O)[C@@H](CO)O[C@@H](O[C@H]3[C@H](O)[C@@H](O)C(O)O[C@@H]3CO)[C@@H]2O)(C(=O)O)C[C@@H]1O` (stereo partly drawn) [Example 1 Series C, 3′-sialyllactose], for which the “content of 3′-O-sialyl-lactulose” value in data set [2] (60° C., 2 weeks, solid in closed vial, listed as sample C) turned out to be 2.67 area %; in data set [2] (60° C., 4 weeks, solid in closed vial, listed as sample C) it was 2.96 area %; in data set [2] (60° C., 6 weeks, solid in closed vial, listed as sample C) it was 3.03 area %; in data set [2] (80° C., 1 weeks, solid in closed vial, listed as sample C), 2.95 area %; in data set [2] (80° C., 2 weeks, solid in closed vial, listed as sample C), 3.38 area %; in data set [2] (80° C., 4 weeks, solid in closed vial, listed as sample C) it was 4.61 area %. Also, the “content of 3′-O-sialyl-lactulose” value in data set [2] (t = 0, kept in freezer, listed as sample C) worked out at 1.81 area %.

Turning to `CC(=O)N[C@H]1[C@H]([C@H](O)[C@H](O)CO)O[C@@](OC[C@H]2O[C@@H](O[C@H]3[C@H](O)[C@@H](O)[C@H](O)O[C@@H]3CO)[C@H](O)[C@@H](O)[C@H]2O)(C(=O)O)C[C@@H]1O` [Example 2 Series D, 6′-sialyllactose], the “pH of the 5 w/w % solution of the freeze-dried amorphous powder” value in data set [1] (5 w/w % aqueous solution after freeze-drying) was determined as 6.2.
